# In the oligonucleotide strings, read from the 5' end, every base follows the letter of its sugar. An asterisk marks phosphorothioate; unmarked linkages are phosphodiester. Other units and linkages are bracketed, terminal groups are in braces. A string of capitals states the bases alone. e = 2'-O-(2-methoxyethyl) (MOE); [5mC] = 5-methylcytosine; d = 2'-deoxy (DNA)
# How the values were obtained:
# mouse p38β mRNA = test: Inhibition of mouse p38β mRNA expression in bEND.3 cells, Northern blot; assay type: cell-based
# Procedure: (§1) bEND.3, a mouse endothelial cell line (gift of Dr. Werner Risau; see Montesano et al., Cell, 1990, 62, 435, and Stepkowski et al., J. Immunol., 1994, 153, 5336) were grown in high-glucose DMEM (Life Technologies, Gaithersburg, Md.) medium containing 10% fetal bovine serum (FBS) and 1% Penicillin/Streptomycinin. Cells were plated at approximately 2×10^5 cells per 100 mm dish. Within 48 hours of plating, the cells were washed with phosphate-buffered saline (Life Technologies). Then, Opti-MEM7 medium containing 3 μg/mL LIPOFECTIN^7 and an appropriate amount of oligonucleotide were added to the cells. As a control, cells were treated with LIPOFECTIN^7 without oligonucleotide under the same conditions and for the same times as the oligonucleotide-treated samples.
# (§2) After 4 hours at 37° C., the medium was replaced with high glucose DMEM medium containing 10% FBS and 1% Penicillin/Streptomycinin. The cells were typically allowed to recover overnight (about 18 to 24 hours) before RNA and/or protein assays were performed as described in Example 2. The p38α, p38β and G3PDH probes used were identical to those described in Example 2.
# (§3) Rat p38α antisense oligonucleotides were screened in bEND.3 cells for inhibition of p38α and p38β mRNA expression. The concentration of oligonucleotide used was 100 nM. Oligonucleotides 21844 (SEQ ID NO. 47), 21845 (SEQ ID NO. 48), 21872 (SEQ ID NO. 51), 21873 (SEQ ID NO. 52), 21875 (SEQ ID NO. 54), and 21876 (SEQ ID NO.
# (§4) Mouse p38β antisense sequences were screened in bEND.3 cells as described in Example 4.
# rat p38α mRNA = test: Inhibition of rat p38α mRNA expression in A-10 cells, Northern blot; assay type: cell-based; details: Rat A-10 cells, 200 nM oligonucleotide, 24 hours
# Procedure: Rat p38α antisense oligonucleotides were screened in Rat A-10 cells. A-10 cells (American Type Culture Collection, Manassas, Va.) were grown in high-glucose DMEM (Life Technologies, Gaithersburg, Md.) medium containing 10% fetal calf serum (FCS). Cells were treated with oligonucleotide as described in Example 2. Oligonucleotide concentration was 200 nM. mRNA was isolated 24 hours after time zero and quantitated by Northern blot as described in Example 2.
# mouse p38α mRNA = test: Inhibition of mouse p38α mRNA expression in bEND.3 cells, Northern blot; assay type: cell-based
# Procedure: as §1, §2, §3, §4
# human p38β mRNA [1] = test: Human p38β mRNA expression in T-24 cells
# human p38α mRNA = test: Human p38α mRNA expression in T-24 cells; details: initial screen of human p38β oligonucleotides
# human p38β mRNA [2] = test: Inhibition of human p38β mRNA expression in HUVEC cells, Northern blot; assay type: cell-based
# Procedure: The human Jurkat T-cell line (American Type Culture Collection, Manassas, Va.) was maintained in RPMI 1640 growth media supplemented with 10% fetal bovine serum (FBS; Hyclone, Logan, Utah). HUVEC cells (Clonetics, San Diego, Calif.) were cultivated in endothelial basal media supplemented with 10% FBS (Hyclone, Logan, Utah).
# HUVEC cells were allowed to reach 75% confluency prior to use. The cells were washed twice with warm (37° C.) OPTI-MEM™ (Life Technologies). The cells were incubated in the presence of the appropriate culture medium, without the growth factors added, and the oligonucleotide formulated in LIPOFECTIN7 (Life Technologies), a 1:1 (w/w) liposome formulation of the cationic lipid N-[1-(2,3-dioleyloxy)propyl]-n,n,n-trimethylammonium chloride (DOTMA), and dioleoyl phosphotidylethanolamine (DOPE) in membrane filtered water. HUVEC cells were treated with 100 nM oligonucleotide in 10 μg/ml LIPOFECTIN7. Treatment was for four hours.
# Total mRNA was isolated using the RNEASY7 Mini Kit (Qiagen, Valencia, Calif.; similar kits from other manufacturers may also be used), separated on a 1% agarose gel, transferred to HYBOND™-N+ membrane (Amersham Pharmacia Biotech, Piscataway, N.J.), a positively charged nylon membrane, and probed. p38 MAPK probes were made using the Prime-A-Gene7 kit (Promega Corporation, Madison, Wis.), a random primer labeling kit, using mouse p38α or p38β cDNA as a template. A glyceraldehyde 3-phosphate dehydrogenase (G3PDH) probe was purchased from Clontech (Palo Alto, Calif.), Catalog Number 9805-1. The fragments were purified from low-melting temperature agarose, as described in Maniatis, T., et al., Molecular Cloning: A Laboratory Manual, 1989. The G3PDH probe was labeled with REDIVUE™ ^32P-dCTP (Amersham Pharmacia Biotech, Piscataway, N.J.) and Strip-EZ labelling kit (Ambion, Austin, Tex.). mRNA was quantitated by a PhosphoImager (Molecular Dynamics, Sunnyvale, Calif.).
# Every oligonucleotide tested gave at least 50% inhibition.
# Oligonucleotides 17893 (SEQ ID NO. 27), 17899 (SEQ ID NO:33), 17904 (SEQ ID NO. 38), and 17907 (SEQ ID NO. 41) were chosen for dose response studies. HUVEC cells were cultured and treated as described in Example 2 except that the oligonucleotide concentration was varied as shown in Table 6. The Lipofectin7/Oligo ratio was maintained at 3 μg Lipofectin7/100 nM oligo, per ml. mRNA was measured by Northern blot as described in Example 2.
# [3] = 100 nM rat p38α antisense oligonucleotide
# [4] = mouse p38β antisense oligonucleotides, screened as in Example 4
# [5] = initial screen of human p38β oligonucleotides
# [6] = 100 nM oligonucleotide in 10 μg/ml LIPOFECTIN, four hours, Northern blot
substance,measurement,setting,value
GoAoGoCoCsTsGsTsGsCsCsTsGsGsCsAoCoToGoG (antisense eGeAeGe[5mC]e[5mC]*dT*dG*dT*dG*d[5mC]*d[5mC]*dT*dG*dG*d[5mC]*eAe[5mC]eTeGeG) [ISIS 21877],% p38β mRNA Inhibition,mouse p38β mRNA; [3],13%
same,% p38α mRNA EXPRESSION,rat p38α mRNA,12%
same,% p38α mRNA INHIBITION,mouse p38α mRNA; [3],55%
GoGoToAoAsGsCsTsTsCsTsGsAsCsAsCoToToCoA (antisense eGeGeTeAeA*dG*d[5mC]*dT*dT*d[5mC]*dT*dG*dA*d[5mC]*dA*e[5mC]eTeTe[5mC]eA) [ISIS 21845],% p38α mRNA EXPRESSION,rat p38α mRNA,25%
CoAoGoGoCsCsAsCsAsGsAsCsCsAsGsAoToGoToC (antisense e[5mC]eAeGeGe[5mC]*d[5mC]*dA*d[5mC]*dA*dG*dA*d[5mC]*d[5mC]*dA*dG*eAeTeGeTe[5mC]) [ISIS 100812],% p38β mRNA Inhibition,mouse p38β mRNA; [4],36%
same,% p38α mRNA INHIBITION,mouse p38α mRNA; [4],17%
CoCoCoToGsCsAsGsCsCsGsCsTsGsCsGoGoCoAoC (antisense e[5mC]e[5mC]e[5mC]eTeG*d[5mC]*dA*dG*d[5mC]*d[5mC]*dG*d[5mC]*dT*dG*d[5mC]*eGeGe[5mC]eAe[5mC]) [ISIS 100802],% p38β mRNA Expression,human p38β mRNA [1]; [5],47%
same,% p38β mRNA Inhibition,mouse p38β mRNA; [4],35%
same,% p38α mRNA EXPRESSION,human p38α mRNA,78%
GoGoCoAoCsAsAsAsGsCsTsAsAsTsGsAoCoToToC (antisense eGeGe[5mC]eAe[5mC]*dA*dA*dA*dG*d[5mC]*dT*dA*dA*dT*dG*eAe[5mC]eTeTe[5mC]) [ISIS 21872],% p38β mRNA Inhibition,mouse p38β mRNA; dose 100 nM (dose response),1%
same,% p38α mRNA EXPRESSION,rat p38α mRNA,13%
same,% p38α mRNA INHIBITION,mouse p38α mRNA; dose 25 nM,35%
same,% p38α mRNA INHIBITION,mouse p38α mRNA; dose 100 nM (dose response),76%
AoToCoCoTsCsAsGsCsTsCsGsCsAsGsToCoCoToC (antisense eAeTe[5mC]e[5mC]eT*d[5mC]*dA*dG*d[5mC]*dT*d[5mC]*dG*d[5mC]*dA*dG*eTe[5mC]e[5mC]eTe[5mC]) [ISIS 100809],% p38α mRNA INHIBITION,mouse p38α mRNA; [4],14%
"ATCCTGAGCTCACAGTCCTC (chimeric, phosphorothioate, further chemistry not given here) [ISIS 17899]",% p38β mRNA Expression,"human p38β mRNA [1]; dose 50 nM, relative to control oligonucleotide = 100%",89%
same,% p38β mRNA Expression,"human p38β mRNA [1]; dose 100 nM, relative to control oligonucleotide = 100%",36%
same,% p38β mRNA Expression,"human p38β mRNA [1]; dose 200 nM, relative to control oligonucleotide = 100%",15%
same,% p38β mRNA Expression,human p38β mRNA [1]; [5],56%
same,% mRNA EXPRESSION,human p38β mRNA [2]; [6],5%
same,% mRNA Inhibition,human p38β mRNA [2]; [6],95%
same,% mRNA EXPRESSION,human p38β mRNA [2]; dose 10 nM,37%
same,% mRNA Inhibition,human p38β mRNA [2]; dose 10 nM,63%
same,% mRNA EXPRESSION,human p38β mRNA [2]; dose 25 nM,23%
same,% mRNA Inhibition,human p38β mRNA [2]; dose 25 nM,77%
same,% mRNA EXPRESSION,human p38β mRNA [2]; dose 50 nM,18%
same,% mRNA Inhibition,human p38β mRNA [2]; dose 50 nM,82%
same,% mRNA EXPRESSION,human p38β mRNA [2]; dose 100 nM,21%
same,% mRNA Inhibition,human p38β mRNA [2]; dose 100 nM,79%
same,% p38α mRNA EXPRESSION,human p38α mRNA,117%
ToGoCoAoCsCsAsCsAsAsGsCsAsCsCsToGoGoAoG (antisense eTeGe[5mC]eAe[5mC]*d[5mC]*dA*d[5mC]*dA*dA*dG*d[5mC]*dA*d[5mC]*d[5mC]*eTeGeGeAeG) [ISIS 21878],% p38β mRNA Inhibition,mouse p38β mRNA; [3],10%
same,% p38α mRNA EXPRESSION,rat p38α mRNA,35%
same,% p38α mRNA INHIBITION,mouse p38α mRNA; [3],25%
AoToGoGoAsTsGsTsGsGsCsCsGsGsCsGoToGoAoA (antisense eAeTeGeGeA*dT*dG*dT*dG*dG*d[5mC]*d[5mC]*dG*dG*d[5mC]*eGeTeGeAeA) [ISIS 100806],% p38β mRNA Inhibition,mouse p38β mRNA; [4],22%
same,% p38α mRNA INHIBITION,mouse p38α mRNA; [4],3%
CoToGoCoGsAsCsAsTsTsTsTsCsCsAsGoCoGoGoC (antisense e[5mC]eTeGe[5mC]eG*dA*d[5mC]*dA*dT*dT*dT*dT*d[5mC]*d[5mC]*dA*eGe[5mC]eGeGe[5mC]) [ISIS 21844],% p38β mRNA Inhibition,mouse p38β mRNA; dose 25 nM,8%
same,% p38β mRNA Inhibition,mouse p38β mRNA; dose 100 nM (dose response),5%
same,% p38α mRNA EXPRESSION,rat p38α mRNA,75%
same,% p38α mRNA INHIBITION,rat p38α mRNA,25%
same,% p38α mRNA INHIBITION,mouse p38α mRNA; dose 25 nM,36%
same,% p38α mRNA INHIBITION,mouse p38α mRNA; dose 100 nM (dose response),80%
ToCoToToCsCsAsAsTsGsGsAsGsAsAsAoCoToGoG (antisense eTe[5mC]eTeTe[5mC]*d[5mC]*dA*dA*dT*dG*dG*dA*dG*dA*dA*eAe[5mC]eTeGeG) [ISIS 21881],% p38α mRNA EXPRESSION,rat p38α mRNA,31%
AoCoAoToTsGsCsTsGsGsGsCsTsTsCsAoGoGoToC (antisense eAe[5mC]eAeTeT*dG*d[5mC]*dT*dG*dG*dG*d[5mC]*dT*dT*d[5mC]*eAeGeGeTe[5mC]) [ISIS 100808],% p38α mRNA INHIBITION,mouse p38α mRNA; [4],13%
GoGoAoToGsGsAsCsAsGsAsAsCsAsGsAoAoGoCoA (antisense eGeGeAeTeG*dG*dA*d[5mC]*dA*dG*dA*dA*d[5mC]*dA*dG*eAeAeGe[5mC]eA) [ISIS 21874],% p38β mRNA Inhibition,mouse p38β mRNA; [3],21%
same,% p38α mRNA EXPRESSION,rat p38α mRNA,22%
same,% p38α mRNA INHIBITION,mouse p38α mRNA; [3],38%
ToAoCoCoAsCsCsGsTsGsTsGsGsCsCsAoCoAoToA (antisense eTeAe[5mC]e[5mC]eA*d[5mC]*d[5mC]*dG*dT*dG*dT*dG*dG*d[5mC]*d[5mC]*eAe[5mC]eAeTeA) [ISIS 100810],% p38α mRNA INHIBITION,mouse p38α mRNA; [4],1%
GoCoAoGoAsCsTsGsAsGsCsCsGsTsAsGoGoCoGoC (antisense eGe[5mC]eAeGeA*d[5mC]*dT*dG*dA*dG*d[5mC]*d[5mC]*dG*dT*dA*eGeGe[5mC]eGe[5mC]) [ISIS 100803],% p38α mRNA INHIBITION,mouse p38α mRNA; [4],18%
AoGoGoCoTsAsGsAsGsCsCsCsAsGsGsAoGoCoCoA (antisense eAeGeGe[5mC]eT*dA*dG*dA*dG*d[5mC]*d[5mC]*d[5mC]*dA*dG*dG*eAeGe[5mC]e[5mC]eA) [ISIS 21876],% p38β mRNA Inhibition,mouse p38β mRNA; [3],minimal effects
same,% p38α mRNA EXPRESSION,rat p38α mRNA,61%
same,% p38α mRNA INHIBITION,rat p38α mRNA,39%
GoGoCoToAsCsCsAsTsGsAsGsTsGsAsGoAoAoGoA (antisense eGeGe[5mC]eTeA*d[5mC]*d[5mC]*dA*dT*dG*dA*dG*dT*dG*dA*eGeAeAeGeA) [ISIS 21879],% p38α mRNA EXPRESSION,rat p38α mRNA,11%
